According to patent publication US11208412B2 (DAEGU-GYEONGBUK MEDICAL INNOVATION FOUNDATION, priority 2017, dated 2021):

Target: T1, recombinant LRRK2 kinase (Homo sapiens, UniProt Q5S007)
T1 construct: purchased Signal Chem, Richmond, BC, Canada
Assay: LRRK2 kinase inhibition (Kinase-Glo luminescence)
Assay type: biochemical
Conditions: IC50 grade; 25 μmol/L ATP, LRRKtide, 30° C. 2 hours; read-out: Enzyme activity LRRK2
Description: Upon completion of the reaction, an equal amount of Kinase-Glo (Promega, Madison, Wis.) solution was added thereto, followed by reaction for 40 minutes. A detection solution was added thereto, followed by further reaction at room temperature for 30 minutes. Then, IC50 of kinase was calculated by measuring the amount of luciferase using a microplate ELISA reader (Bio-Tek).

T1 sequence (Q5S007 whole entry): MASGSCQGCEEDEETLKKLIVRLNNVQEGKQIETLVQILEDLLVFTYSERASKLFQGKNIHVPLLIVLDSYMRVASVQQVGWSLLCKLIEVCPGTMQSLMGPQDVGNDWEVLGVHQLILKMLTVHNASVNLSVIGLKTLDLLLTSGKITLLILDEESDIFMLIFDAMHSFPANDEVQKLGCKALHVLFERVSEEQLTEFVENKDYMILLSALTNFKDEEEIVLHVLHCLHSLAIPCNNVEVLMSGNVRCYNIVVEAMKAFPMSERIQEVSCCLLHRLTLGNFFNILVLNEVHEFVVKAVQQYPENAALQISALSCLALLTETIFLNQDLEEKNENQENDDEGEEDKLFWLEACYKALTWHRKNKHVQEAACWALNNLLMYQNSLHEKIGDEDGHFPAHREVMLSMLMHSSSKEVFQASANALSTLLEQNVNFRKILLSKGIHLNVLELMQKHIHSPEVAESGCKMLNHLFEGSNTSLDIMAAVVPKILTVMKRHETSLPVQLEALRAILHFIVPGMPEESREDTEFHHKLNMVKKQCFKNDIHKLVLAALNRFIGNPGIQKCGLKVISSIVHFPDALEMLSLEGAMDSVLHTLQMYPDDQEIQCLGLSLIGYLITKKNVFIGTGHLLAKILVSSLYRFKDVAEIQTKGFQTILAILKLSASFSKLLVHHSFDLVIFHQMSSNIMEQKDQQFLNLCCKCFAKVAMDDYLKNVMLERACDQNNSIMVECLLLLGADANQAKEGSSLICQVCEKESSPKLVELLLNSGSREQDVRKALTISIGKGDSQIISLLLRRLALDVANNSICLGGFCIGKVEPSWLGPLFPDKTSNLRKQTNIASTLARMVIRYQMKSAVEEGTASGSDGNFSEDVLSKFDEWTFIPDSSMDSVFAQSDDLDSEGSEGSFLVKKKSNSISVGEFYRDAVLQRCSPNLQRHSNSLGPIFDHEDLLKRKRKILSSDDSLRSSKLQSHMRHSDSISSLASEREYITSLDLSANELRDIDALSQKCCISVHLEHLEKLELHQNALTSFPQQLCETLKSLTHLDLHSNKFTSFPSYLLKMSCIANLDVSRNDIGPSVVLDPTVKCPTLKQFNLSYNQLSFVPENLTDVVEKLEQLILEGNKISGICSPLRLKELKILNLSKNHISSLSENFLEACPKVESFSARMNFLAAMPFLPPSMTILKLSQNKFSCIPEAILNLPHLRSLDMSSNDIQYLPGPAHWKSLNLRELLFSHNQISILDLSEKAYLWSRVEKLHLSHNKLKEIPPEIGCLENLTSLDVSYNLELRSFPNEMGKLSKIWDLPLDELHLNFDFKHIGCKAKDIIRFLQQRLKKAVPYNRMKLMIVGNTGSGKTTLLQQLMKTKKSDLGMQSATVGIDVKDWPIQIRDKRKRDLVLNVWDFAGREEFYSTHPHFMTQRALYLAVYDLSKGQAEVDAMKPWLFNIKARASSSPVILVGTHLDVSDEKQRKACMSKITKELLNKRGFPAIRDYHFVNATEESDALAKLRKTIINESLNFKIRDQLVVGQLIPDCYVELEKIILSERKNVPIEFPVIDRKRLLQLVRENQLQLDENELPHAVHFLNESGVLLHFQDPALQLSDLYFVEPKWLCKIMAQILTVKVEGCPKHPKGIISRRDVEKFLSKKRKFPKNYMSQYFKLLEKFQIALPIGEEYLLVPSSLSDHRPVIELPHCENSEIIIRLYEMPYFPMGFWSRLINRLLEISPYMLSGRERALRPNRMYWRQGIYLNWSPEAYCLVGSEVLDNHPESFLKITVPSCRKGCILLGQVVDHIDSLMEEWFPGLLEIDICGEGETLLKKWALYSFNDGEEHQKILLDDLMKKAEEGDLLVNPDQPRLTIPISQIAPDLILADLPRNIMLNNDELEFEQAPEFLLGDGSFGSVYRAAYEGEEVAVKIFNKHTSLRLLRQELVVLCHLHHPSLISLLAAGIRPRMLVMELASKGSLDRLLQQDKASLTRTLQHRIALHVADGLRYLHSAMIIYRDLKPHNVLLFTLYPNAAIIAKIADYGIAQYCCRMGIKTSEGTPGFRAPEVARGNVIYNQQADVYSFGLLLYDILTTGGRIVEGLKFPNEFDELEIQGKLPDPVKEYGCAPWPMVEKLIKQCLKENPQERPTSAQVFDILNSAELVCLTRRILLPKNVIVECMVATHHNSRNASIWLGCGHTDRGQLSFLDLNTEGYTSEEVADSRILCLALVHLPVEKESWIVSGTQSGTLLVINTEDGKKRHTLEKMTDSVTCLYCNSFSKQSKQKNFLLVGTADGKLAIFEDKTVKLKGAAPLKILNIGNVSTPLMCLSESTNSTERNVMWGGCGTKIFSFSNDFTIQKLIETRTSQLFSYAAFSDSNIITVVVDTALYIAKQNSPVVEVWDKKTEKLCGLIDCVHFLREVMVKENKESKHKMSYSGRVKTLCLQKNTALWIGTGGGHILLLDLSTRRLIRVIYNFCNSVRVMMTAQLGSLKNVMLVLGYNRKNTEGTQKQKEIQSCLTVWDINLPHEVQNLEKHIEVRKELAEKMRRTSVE

| SMILES | IC50 |
| --- | --- |
| CCNc1nc(Nc2ccc(C(=O)NC3CCN(C)CC3)cc2OC)nc2[nH]cc(C#N)c12 [Example 56, 4-((5-cyano-4-(ethylamino)-7H-pyrrolo[2,3-d]pyrimidine-2-yl)amino)-3-methoxy-N-(1-methylpiperidine-4-yl)benzamide] | < 10 nM |
| CNc1nc(Nc2cn(C(C)C)nc2C)nc2[nH]cc(C#N)c12 [Example 30, 6-((1-isopropyl-3-methyl-1H-pyrazole-4-yl)amino)-4-(methylamino)-1H-pyrrolo[2,3-b]pyrimidine-3-carbonitrile] | 10 to 100 nM |
| CCNc1nc(Nc2ccc(C(=O)N3CCN(C4COC4)CC3)cc2OC)nc2[nH]cc(C#N)c12 [Example 58, 4-(ethylamino)-2-((2-methoxy-4-(4-(oxetane-3-yl)piperazine-1-carbonyl)phenyl)amino)-7H-pyrrolo[2,3-d]pyrimidine-5-carbonitrile] | < 10 nM |
| COc1cc(C(=O)N2CCC(N3CCOCC3)CC2)c(F)cc1Nc1nc(NC2CC2)c2c(C#N)c[nH]c2n1 [Example 19, 4-(cyclopropylamino)-2-((5-fluoro-2-methoxy-4-(4-morpholinopiperidine-1-carbonyl)phenyl)amino)-7H-pyrrolo[2,3-d]pyrimidine-5-carbonitrile] | 10 to 100 nM |
| CCNc1nc(Nc2ccc(C(=O)N3CCN(C)C[C@H]3C)cc2OC)nc2[nH]cc(C#N)c12 [Example 76, (R)-2-((4-(2,4-dimethylpiperazine-1-carbonyl)-2-methoxyphenyl)amino)-4-(ethylamino)-7H-pyrrolo[2,3-d]pyrimidine-5-carbonitrile] | < 10 nM |
| CCNc1nc(Nc2ccc(C(=O)N3CCC(N4CCN(C)CC4)CC3)cc2OC)nc2[nH]cc(C(F)(F)F)c12 [Example 106] | < 10 nM |
| CNc1nc(Nc2cc(F)c(C(=O)NC3CCN(C(C)C)CC3)cc2OC)nc2[nH]cc(C#N)c12 [Example 67, 4-((5-cyano-4-(methylamino)-7H-pyrrolo[2,3-d]pyrimidine-2-yl)amino)-2-fluoro-N-(1-isopropylpiperidine-4-yl)-5-methoxybenzamide] | < 10 nM |
| CCNc1nc(Nc2cc(F)c(C(=O)N3CCOCC3)cc2OC)nc2[nH]cc(C#N)c12 [Example 6, 4-(ethylamino)-2-((5-fluoro-2-methoxy-4-(morpholine-4-carbonyl)phenyl)amino)-7H-pyrrolo[2,3-d]pyrimidine-5-carbonitrile] | < 10 nM |
| CCNc1nc(Nc2ccn(C)n2)nc2[nH]cc(C#N)c12 [Example 5, 4-(ethylamino)-2-((1-methyl-1H-pyrazole-3-yl)amino)-7H-pyrrolo[2,3-d]pyrimidine-5-carbonitrile] | < 10 nM |
| COc1cc(C(=O)N2CCC(N3CCOCC3)CC2)ccc1Nc1nc(OC(C)C)c2c(C#N)c[nH]c2n1 [Example 91, 4-isoprofoxy-2-((2-methoxy-4-(4-morpholinopiperidine-1-carbonyl)phenyl)amino)-7H-pyrrolo[2,3-d] pyrimidine-5-carbonitrile] | < 10 nM |
| CCNc1nc(Nc2ccc(C(=O)N3CCO[C@@H](C)C3)cc2OC)nc2[nH]cc(C#N)c12 [Example 26, (S)-4-(ethylamino)-2-((2-methoxy-4-(2-methylmorpholine-4-carbonyl)phenyl)amino)-7H-pyrrolo[2,3-d]pyrimidine-5-carbonitrile] | < 10 nM |
| COc1cc(C(=O)N2CCC(F)(F)CC2)ccc1Nc1nc(NC2(C)CC2)c2c(C#N)c[nH]c2n1 [Example 45, 2-((4-(4,4-difluoropiperidine-1-carbonyl)-2-methoxyphenyl)amino)-4-((1-methylcyclopropyl)amino)-7H-pyrrolo[2,3-d]pyrimidine-5-carbonitrile] | 10 to 100 nM |
| COc1cc(C(=O)N2CCOCC2)ccc1Nc1nc(NC2CC2)c2c(C#N)c[nH]c2n1 [Example 16, 4-(cyclopropylamino)-2-((2-methoxy-4-(morpholine-4-carbonyl)phenyl)amino)-7H-pyrrolo[2,3-d]pyrimidine-5-carbonitrile] | < 10 nM |
| CCNc1nc(Nc2ccc(C(=O)N3CCN(C)CC3)cc2OC)nc2[nH]cc(C(F)(F)F)c12 [Example 107, (4-((4-(ethylamino)-5-(trifluoromethyl)-7H-pyrrolo[2,3-d]pyrimidine-2-yl)amino)-3-methoxyphenyl)(4-methylpiperazine-1-yl)methanone] | < 10 nM |
| Cc1c(Nc2nc(NC3(C)CC3)c3c(C#N)c[nH]c3n2)cnn1C(C)C [Example 38, 2-((1-isopropyl-5-methyl-1H-pyrazole-4-yl)amino)-4-((1-methylcyclopropyl)amino)-7H-pyrrolo[2,3-d]pyrimidine-5-carbonitrile] | < 10 nM |
| CNc1nc(Nc2cn(C(C)(C)C#N)nc2C)nc2[nH]cc(C#N)c12 [Example 47, 2-((1-(2-cyanopropane-2-yl)-3-methyl-1H-pyrazole-4-yl)amino)-4-(methylamino)-7H-pyrrolo[2,3-d]pyrimidine-5-carbonitrile] | < 10 nM |
| CCNc1nc(Nc2cnn(CCOC)c2Cl)nc2[nH]cc(C#N)c12 [Example 62, 2-((5-chloro-1-(2-methoxyethyl)-1H-pyrazole-4-yl)amino)-4-(ethylamino)-7H-pyrrolo[2,3-d]pyrimidine-5-carbonitrile] | < 10 nM |
| COc1cc(C(=O)N2CCOCC2)ccc1Nc1nc(OC2(C)CC2)c2c(C#N)c[nH]c2n1 [Example 95, 2-((2-methoxy-4-(morpholine-4-carbonyl)phenyl)amino)-4-(1-methylcyclopropoxy)-7H-pyrrolo[2,3-d]pyrimidine-5-carbonitrile] | < 10 nM |
| COc1cc(C(=O)N2CCOCC2)c(F)cc1Nc1nc(NC2CC2)c2c(C#N)c[nH]c2n1 [Example 18, 4-(cyclopropylamino)-2-((5-fluoro-2-methoxy-4-(morpholine-4-carbonyl)phenyl)amino)-7H-pyrrolo[2,3-d]pyrimidine-5-carbonitrile] | 10 to 100 nM |
| CNc1nc(Nc2c(C)nn(C(C)(C)C#N)c2C)nc2[nH]cc(C#N)c12 [Example 77, 2-((1-(2-cyanopropane-2-yl)-3,5-dimethyl-1H-pyrazole-4-yl)amino)-4-(methylamino)-7H-pyrrolo[2,3-d]pyrimidine-5-carbonitrile] | > 100 nM |
| CCNc1nc(Nc2cc3c(cc2OC)CN(C)C3=O)nc2[nH]cc(C(F)(F)F)c12 [Example 134, 6-((4-(ethylamino)-5-(trifluoromethyl)-7H-pyrrolo[2,3-d]pyrimidine-2-yl)amino)-5-methoxy-2-methylisoindolin-1-one] | > 100 nM |
| CCNc1nc(Nc2cc(F)c(C(=O)N3CCN(C)C[C@H]3C)cc2OC)nc2[nH]cc(C#N)c12 [Example 79, (R)-2-((4-(2,4-dimethylpiperazine-1-carbonyl)-5-fluoro-2-methoxyphenyl)amino)-4-(ethylamino)-7H-pyrrolo[2,3-d]pyrimidine-5-carbonitrile] | < 10 nM |
| CNc1nc(Nc2ccc(C(=O)N3C[C@@H](C)O[C@@H](C)C3)cc2OC)nc2[nH]cc(C#N)c12 [Example 22, 2-((4-((2R,6S)-2,6-dimethylmorpholine-4-carbonyl)-2-methoxyphenyl)amino)-4-(methylamino)-7H-pyrrolo[2,3-d]pyrimidine-5-carbonitrile] | 10 to 100 nM |
| CC1(Oc2nc(Nc3cnn([C@H]4CCN(C5COC5)C[C@@H]4F)c3)nc3[nH]cc(C#N)c23)CC1 [Example 101, 2-((1-((3S,4S)-3-fluoro-1-(oxetane-3-yl)piperidine-4-yl)-1H-pyrazole-4-yl)amino)-4-(1-methylcyclopropoxy)-7H-pyrrolo[2,3-d]pyrimidine-5-carbonitrile] | < 10 nM |
